From patent US20130064812A1, “COMBINATION THERAPIES FOR HEMATOLOGIC MALIGNANCIES” (Gilead Calistoga LLC, priority 2011, published 2013)
“And” between values parts separate entries of the source, which are not always exact repeats. Identical values can stand only once. “Also recorded” adds a separate entry of the source.

Assays:
PI3K-δ = experiment: PI3K ELISA assay on CLL cell lysates with lenalidomide; format: cell-based, human; conditions: 0.5 μM lenalidomide; 1 or 10 μM compound added to lysate; N=9
Method: PI3K assay was preformed on whole cell lysates from CLL cells. The ELISA assay was performed according to the manufacture's instructions (Echelon Biosciences, Salt Lake City, Utah).
To first confirm the specificity of PI3-kinase activation, the direct increase in the enzymatic activity of PI3K following treatment with lenalidomide was determined. […] Results were calculated relative to μg of protein. Signaling with lenalidomide through the PI3K pathway can occur through four catalytic isoforms: p110α, p110β, p110γ, and p110δ.

LB cells = experiment: MM cell growth with IGF-1 or IL-6 (MTT); format: cell-based, human; conditions: 0.625 μM-[…], 48 h, with IL-6 or IGF-1
Method: LB cells ([…]) were cultured for 48 h with control media; with the compound of formula I, in the presence or absence of either IL-6 or IGF-1. […] Chemicon International) dye absorbance. Cells were pulsed with 10 μL of 5 mg/mL MTT to each well for the last 4 hours of 48-hour cultures, followed by 100 μL isopropanol containing 0.04 N HCl.

CLL = experiment: Previous single-agent study in patients with CLL; format: in vivo, human; conditions: single-agent therapy
phospho-Akt(Ser473) = experiment: Constitutive Akt phosphorylation in leukemia and lymphoma cell lines (immunoblot); format: cell-based
Method: A large panel of leukemia and lymphoma cell lines was assessed for constitutive Akt phosphorylation. These cell lines represent B-lymphoma, T-lymphoma, ALL, Malignant histiocytosis, DLBCL and AML. […] Thereafter, cell were lysed, size-fractioned and immunoblotted with antibodies directed against phospho-Akt(Ser473).
The PI3K pathway is frequently deregulated in leukemia and lymphoma cell lines. […] In addition, PI3K pathway activation is dependent on p110δ.

[1] = tested on: relapsed or refractory indolent B-cell NHL and CLL; experiment: Clinical study, combination with rituximab or bendamustine, 20 patients (Example 39); conditions: human, in vivo
Method: 20 patients were enrolled, including 12 with iNHL and 8 with CLL. All patients received the compound of formula I, either 100 mg orally twice per day (BID) or 150 mg orally twice per day (BID) for as long as the patient was benefiting. Patients also received either rituximab 375 mg/m^2 administered weekly for 8 weeks, starting on Day 1 of Cycle 1, or bendamustine 90 mg/m^2 administered on Days 1 and 2 of each cycle for 6 cycles. Tumor response was evaluated according to standard criteria.

CLL cells = experiment: BH3 profiling (mitochondrial depolarization) of CLL cells; format: cell-based, human; conditions: 24 hours; p=0.075
Method: CLL patient peripheral blood, bone marrow, and lymph node samples were analyzed by either the plate-based fluorimetry or FACS method. Briefly, PBMCs from CLL patients were made into single cell suspensions and gently permeabilized using digitonin (0.002%). For the fluorimtery-based method, 100 μM JC-1 (Invitrogen) was added at this time and cells were then loaded onto a 384-well plate, with individual wells containing individual BH3-only peptides. The JC1-BH3 assays were then conducted in triplicate on a Tecan Safire 2 with […] and Em 590+/−20 nm with a three-hour time course. For the FACS-based method, single cell suspensions from CLL patient PBMCs were stained using human Fc Block (BD Pharmingen) followed by anti-CD19-V450 (BD Pharmingen) and anti-CXCR4-APC (BD Pharmingen). […] JC-1 was measured from the 488-nm laser using a 530/30-nm filter (FITC) and a 585/42-nm filter (PE), and the degree of mitochondrial depolarization was calculated using the surrogate of the change in the median of PE signal. The mitochondrial depolarization reported in response to each BH3 peptide is normalized relative to the median percentage change in PE fluorescence of the JC-1 dye with a negative control, dimethyl sulfoxide (DMSO) (0%) and a positive control, the mitochondrial uncoupling agent carbonyl cyanide 4-(trifluoromethoxy)-phenylhydrazone (FCCP) (100%). […]

over 350 protein kinases = experiment: Ambit KINOMEscan kinome-wide protein kinase screen; format: binding; conditions: 10 μM, over 350 protein kinases (over 300)
Source text: Examples of some kinases in the screen are shown below in Table 3.

[2] = tested on: LB and INA-6 MM cells with BMSCs; experiment: Paracrine MM cell growth, cytokine secretion and signaling with BMSCs; format: cell-based, human
Method: MM cells (2×10^4 cells/well) were cultured for 48 h in BMSC coated 96-well plates (Costar, Cambridge, Mass.), in the presence or absence of drug. DNA synthesis was measured by [3H]-thymidine (Perkin-Elmer, Boston, Mass.) uptake, with [3H]-thymidine (0.5μ Ci/well) added during the last 8 h of 48 h cultures. All experiments were performed in quadruplicate.
Cytokine secretion by human BMSCs cocultured with MM cells was assessed by ELISA. […] After 48 h, supernatants were harvested and stored at −80° C. Cytokines were measured using Duo set ELISA Development Kits (R&D Systems, Minneapolis, Minn.). All measurements were carried out in triplicate.
The cytokine levels in culture supernatants were assessed using Proteome Profiler Antibody Arrays Panel A (R&D Systems, Minneapolis, Minn.), Supernatants from co-cultures with BMSCs were incubated for 4 hours with membranes arrayed with Abs against 37 cytokines, according to manufacturer's instructions.
DNA synthesis was determined by [3H]-thymidine incorporation. Data represent means (±SD) of triplicate cultures.
Error bars indicate SD (±).
INA-6 cells cultured with or without BMSCs were treated with compound for 48 h. Total cell lysates were subjected to immunoblotting using indicated antibodies, FIG. 34F. Actin was used as a loading control.

CCRF-SB cells = experiment: Cell cycle FACS analysis (propidium iodide); format: cell-based
Method: Representative fluorescence-activated cell sorting (FACS) analysis of propidium iodide-stained CCRF-SB cells under normal growth conditions, and growth in the presence of the compound of formula I. The average percentage of cells in G0-G1, S, and G2-M phases is calculated in the table below the histographs.

Compound: CC[C@H](Nc1ncnc2[nH]cnc12)c1nc2cccc(F)c2c(=O)n1-c1ccccc1 [Compound I, 5-fluoro-3-phenyl-2-[1-(9H-purin-6-ylamino)-propyl]-3H-quinazolin-4-one]
- PI3K enzymatic activity after lenalidomide (PI3K-δ): prevent the increase in PI3K enzymatic activity
- MM cell growth (LB cells): inhibits MM cell growth even in the presence of cell growth stimulatory cytokines
- fraction of patients with CLL with lymphocytosis (CLL): ⅔
- lymphocyte redistribution (CLL): transient lymphocytosis in patients with CLL
- cell lines in which constitutive AKT phosphorylation was inhibited (phospho-Akt(Ser473); 10 μM, 2 hrs, B-cell and T-cell lymphomas included): 11 out of 11
- constitutive Akt(Ser473) phosphorylation (phospho-Akt(Ser473); 2 hours treatment): inhibits Akt phosphorylation; also recorded: Reduction in Akt(Ser473) was achieved for all cell lines
- cell lines in which constitutive AKT phosphorylation was inhibited (phospho-Akt(Ser473); cell lines with constitutive p-AKT): 13 of 13 and 13 out of 13
- dose-limiting toxicities [1]: No dose-limiting toxicities related to the compound of formula I were observed
- mitochondrial priming of stroma-exposed CLL cells (CLL cells): increased mitochondrial priming
- activity in kinome-wide protein kinase screen (over 350 protein kinases): failed to detect any activity
- activity in kinome-wide protein kinase screen (over 350 protein kinases; listed as compound of formula I): little activity
- MM cell growth and cytokine secretion induced by BMSCs ([2]; 48 h): inhibited growth and cytokine secretion
- phosphorylation of AKT and ERK induced by BMSCs ([2]; INA-6, 48 h): inhibited
- cell cycle (CCRF-SB cells): G0/G1 cell cycle arrest
